Measurements as given in patent publication US6748900B2, “Methods for growing and imprinting fish using an odorant” (MariCal, Inc., priority 2001, dated 2004).
pEC50: −log10 of the molar value. “Also recorded” adds a separate entry of the source.

Key:
[1] = test system: olfactory epithelium of freshwater adapted juvenile salmon; experiment: Extracellular electrical potentials (EEG) from olfactory nerve after bolus stimuli to the olfactory epithelium in distilled water; format: in vivo, Atlantic salmon (Salmo salar); conditions: for concentration dependence of olfactory nerve impulse: exposure of fish olfactory epithelium
Excerpt: The present invention provides methods for identifying and/or quantifying the effects of PVCR modulators on olfactory receptor sensing and visa versa. The present invention also includes methods for determining whether a compound is an odorant. When fish are exposed to an odorant (e.g., the odorant binds to olfactory lamellae), the odorant binds to the olfactory epithelium of the fish, which leads to the generation of a nerve impulse. The electric potential of the impulse can be measured using methods known in the art, or those later developed. One example of a method that can be used to measure electric potential is an electroencephalogram, commonly referred to as an EEG. Example 3 describes in detail how to measure nerve impulse of fish, and in particular, as it relates to modulation of the PVCR in the olfactory apparatus of the fish. Briefly, the fish are anaesthetized and placed in V-clamp apparatus where its gills were irrigated continuously with aerated seawater and its nasal lamellae bathed continuously by a stream of distilled water via a tube held in position in the inhalant olfactory opening. The olfactory nerves of the fish were exposed by removal of overlying bony structures. Odorants to be tested can be delivered as boluses to the olfactory epithelium via a 3 way valve where 1 cc of water containing the stimulus was rapidly injected into the tube containing a continuously stream of distilled water. […] The results can be analyzed by computer using compatible software.
(§1) Physiol. A 127:157-166 (1975), and Hubbard, PC, et al., Olfactory sensitivity to changes in environmental Ca2+ in the marine teleost Sparus Aurata, J. Exp. Biol. 203:3821-3829 (2000). After anaesthetizing the fish, it was placed in V-clamp apparatus where its gills were irrigated continuously with aerated seawater and its nasal lamellae bathed continuously by a stream of distilled water via a tube held in position in the inhalant olfactory opening. The olfactory nerves of the fish were exposed by removal of overlying bony structures. Stimuli were delivered as boluses to the olfactory epithelium via a 3 way valve where 1 cc of water containing the stimulus was rapidly injected into the tube containing a continuously stream of distilled water. […] Using this experimental approach, stable and reproducible recordings could be obtained for up to 6 hr after the initial surgery on the fish.
Similarly, exposure of olfactory epithelium to the PVCR agonist Gd^3+ produces responses of a similar magnitude to those evoked by Ca^2+ in a concentration range of 1-10 micromolar. […] These dose response curves (EC50 Gd^+3≦Ca^2+<Mg^2+) are similar to those obtained for PVCR modulated responses in other fish epithelium (flounder urinary bladder NaCl-mediated water transport-see SKCaR application).

[2] = test system: nasal lamellae of Atlantic salmon; experiment: Olfactory response to stimuli alone or in combination with 500 mM NaCl (FIGS. 12B-12D); format: in vivo, Atlantic salmon (Salmo salar)
Protocol: Stimuli were delivered to the olfactory epithelium via a glass capillary tube placed in the inhalant olfactory opening. This tube was connected to a gravity fed tubing system allowing for switching from a background perfusion (charcoal filtered freshwater) to an experimental stimulus while maintaining a flow rate of 6-8 ml/min. Verification of the location of the stimulus delivery tubes and electrode was made by observing responses to a ‘search stimulus’ of […].
Stimuli consisted of CaR agonists (CaCl2, MgCl2, GdCl3, SrCl2 and NaCl (Sigma-Aldrich), control freshwater stimulus (charcoal filtered tap water) and control seawater stimuli (ASW, Ca-free ASW, Divalent free ASW). Stimuli were presented alone or in combination with 500 mM NaCl. Ringers and artificial seawater recipes were obtained from the Biological Bulletin Compendia (all concentrations are in mM) ASW (nAcl 423, KCl 9.0, CaCl2 22.94, MgSO4 25.50, NaHCO3 2.14, pH 8.0); Ca-free ASW (NaCl 436.71, KCl 9.0, MgCl2 22.94, MgSO4, 25.5, NaHCO3 2.14, pH 8.0); Divalent free ASW (NaCl 461.85, KCl 10.73, NAHCO3 2.14, Na2SO4 7.04, pH 8.0); FW Teleost Ringer's (NaCl 111.0, KCl 5.37, Cacl2 1.0, MgSO4, 0.6, HEPES 5.0, pH 7.3).

[3] = test system: olfactory epithelium; experiment: Olfactory nerve recording: PVCR agonists added to a repellant (finger rinse) or an attractant (L-alanine); format: in vivo, Atlantic salmon (Salmo salar); conditions: for effect on response of olfactory epithelium to mammalian finger rinse: FIG. 13
Excerpt: as §1
The ablation of responses to both the PVCR agonists as shown in FIG. 12A as well as mammalian finger rinse indicate that there are some complex interactions between PVCR proteins and other odorant receptors. It is also extremely unlikely that inclusion of PVCR agonists removed all the stimulatory components of mammalian finger rinse from solution such that they were not able to stimulate the epithelium.

[4] = test system: shark kidney calcium receptor (SKCaR); experiment: FURA-2 ratio imaging fluorescence of HEK cells stably expressing SKCaR; format: cell-based, dogfish (Squalus acanthias); conditions: 10 mM amino acid; for effect on SKCaR's response to a given Ca^2+ concentration: FIG. 16
Protocol: Full length recombinant dogfish (Squalus acanthias) shark kidney calcium receptor (SKCaR) was expressed in human embryonic kidney cells using methods described herein. The ability of SKCaR to respond to individual amino acids as well as various mixtures was quantified using FURA-2 ratio imaging fluorescence.
Baseline extracellular Ca^2+ concentration was 0.5 mM. Aliquots of Ca^2+ were added to produce final extracellular concentrations of 2.5 mM, 5 mM, 7.5 mM, 10 mM and 20 mM Ca^2+ with changes in the fluorescence recorded. Note that increases in cell fluorescence were greater in the presence of 10 mM Phe for extracellular Ca^2+ concentrations less than 10 mM.

[5] = 1 mM agonist with 500 mM NaCl, FIG. 12D
[6] = 500 micromolar stimulus, FIG. 11

[Ca+2] [Ca^2+, calcium]
olfactory nerve response (EEG activity) ([1]; 1 mM stimulus, FIG. 11): responses in EEG activity | olfactory nerve response (EEG activity) ([1]; 1 mM stimulus, FIG. 11, listed as calcium): existence of an olfactory recording | pEC50 ([1]; FIG. 12A, responses normalized to 10 mM Ca^2+, multiple fish, read-out: half maximal excitatory response (EC50)): 5.00 to 6.00 | concentration dependence of olfactory nerve impulse [1]: concentration-dependent olfactory nerve impulse | effect on olfactory response to 500 mM NaCl [2, 5]: significantly reduce the olfactory response | olfactory response in a 500 mM NaCl solution ([2]; 10 mM in 500 mM NaCl, FIG. 12C): identical to that produced by artificial seawater (ASW) exposure | effect on olfactory response produced by 500 mM NaCl ([2]; FIG. 12C, various concentrations in 500 mM NaCl): reduces the olfactory response | effect on olfactory nerve response to 500 micromolar L-alanine ([3]; 5 mM added, FIG. 14 recording #2): complete loss of the corresponding response | effect on response of olfactory epithelium to mammalian finger rinse ([3]; 5 mM agonist included): reversibly ablated the response | response to subsequent identical L-alanine stimulus without the agonist ([3]; after 5 mM, FIG. 14 recording #3): return of the signal

[Gd+3] [Gd^3+, gadolinium]
olfactory nerve response ([1]; 50 micromolar stimulus, FIG. 11, listed as Gadolinium): existence of an olfactory recording | olfactory nerve response ([1]; 50 micromolar stimulus, FIG. 11, listed as gadolinium): obtained a response | concentration range producing responses of a similar magnitude to those evoked by Ca^2+ ([1]; FIG. 12A): 1 to 10 µM | concentration dependence of olfactory nerve impulse [1]: concentration-dependent olfactory nerve impulse | effect on olfactory response to 500 mM NaCl ([2]; 50 micromolar agonist with 500 mM NaCl, FIG. 12D): significantly reduce the olfactory response | effect on olfactory nerve response to 500 micromolar L-alanine ([3]; 50 micromolar added, FIG. 14 recording #7): complete loss of the corresponding response | effect on response of olfactory epithelium to mammalian finger rinse ([3]; 50 micromolar agonist included): reversibly ablated the response | effect on response of olfactory epithelium to mammalian finger rinse ([3]; 50 micromolar agonist included, listed as gadolinium): reversibly altered | response to subsequent identical L-alanine stimulus without the agonist ([3]; after 50 micromolar, FIG. 14 recording #8 vs #6): return of the signal; also recorded: decreased as compared to control

CC[C@H](C)[C@H](N)C(=O)O [Ile, L-Isoleucine]
effect on SKCaR's response to a given Ca^2+ concentration [4]: increase SKCaR's response

C[C@H](N)C(=O)O [L-alanine]
duration of olfactory nerve response [1, 6]: approximately 2 seconds | olfactory nerve response [1, 6]: large increases in both the firing frequency and amplitude; also recorded: existence of an olfactory recording

[Mg+2] [Mg^2+, magnesium]
concentration at which olfactory epithelium responses first occur ([1]; FIG. 12A): 10 to 100 µM | concentration dependence of olfactory nerve impulse [1]: concentration-dependent olfactory nerve impulse | effect on olfactory response to 500 mM NaCl [2, 5]: significantly reduce the olfactory response

[Cl-].[Na+] [NaCl, sodium chloride]
olfactory nerve response (EEG activity) ([1]; 250 mM stimulus, FIG. 11): responses in EEG activity; also recorded: existence of an olfactory recording | concentration until which olfactory epithelium is unresponsive ([1]; FIG. 12A): 250 millimolar | olfactory response to irrigation of the nasal lamellae ([2]; 500 mM alone, FIG. 12D): large response | response to subsequent L-Alanine alone ([3]; after 250 mM, FIG. 14 recordings #5 and #10): enhanced response to L-Alanine alone

N[C@@H](Cc1ccccc1)C(=O)O [Phe, L-Phenylalanine]
effect on SKCaR's response to a given Ca^2+ concentration [4]: increase SKCaR's response | increases in cell fluorescence on addition of extracellular Ca^2+ ([4]; extracellular Ca^2+ less than 10 mM, FIG. 15): greater

[Sr+2] [Sr2+, strontium]
effect on olfactory response to 500 mM NaCl [2, 5]: significantly reduce the olfactory response

neomycin
concentration dependence of olfactory nerve impulse [1]: concentration-dependent olfactory nerve impulse
